# Test results from patent publication US20230133672A1, “FUSION POLYPEPTIDE COMPRISING GDF15 AND POLYPEPTIDE REGION CAPABLE OF O-GLYCOSYLATION” (LG CHEM, LTD., priority 2019, published 2023).
# Assay: Single administration: body weight change in DIO mice
# Type: in vivo, Mouse, C57BL/6J-DIO
# Conditions: single s.c. injection, mean
# Description: The pharmacological effect of the fusion polypeptides produced and purified in Example 1 above was tested in mice (C57BL/6J, 6-week-old, male, 100 mice; Raonbio).
# In the present example, DI0 mouse model (Mouse, C57BL/6J-DIO, male, 100 mice, 14-week-old (obesity feed feeding for 8 weeks)) in which obesity was induced by feeding a high-fat diet into the C57BL/6J mice for 8 weeks was used.
# The administration of the test substances HT-ID1-GDF15, HT-ID2-GDF15, and HT-ID3-GDF15 and the control substance Semaglutide (Bachem) was conducted from the next day after group separation, and the administration time was performed at 9 AM every day. Subcutaneous administration was conducted for all the control substance and test substances. For the administration route of the control substance and test substances, subcutaneous administration was selected depending on the clinically scheduled administration route.
# For all the control substance and test substances, the amount of the administration solution was set to 5 mL/kg and the administration liquid by individual was calculated on the basis of the recently measured body weight and it was administered by subcutaneous injection once on the start day of the test using a disposable syringe (1 mL). The test substances were administered only once. For comparison, the control group in which the control substance Semaglutide was administered was prepared, and the comparison group in which Semaglutide was administered was administered once a day, and all the administration was progressed from 9 AM.
# As for the observation, measurement and test schedule for the test groups, the administration start date was set to Day 0, and 7 days from the administration start date were set to one week of administration.
# The body weight of each mouse was measured on the day of the start of administration of the test substances (before administration), and thereafter, the body weight was measured every day (measured up to 9 days), and the amount of the administration solution of the test substances was determined on the basis of the most recently measured body weight.
# All the experimental results obtained in the present example were expressed as mean±standard error and tested using Prism5 (version 5.01). One-way analysis of variance (ANOVA) was performed on all data, and when significance was observed, Dunnett's test was performed to find out the test groups with a significant difference from the control group (significance level: two-sided 5% and 1%, 0.1%).
substance,measurement,setting,value
"HT-ID3-GDF15: Fusion polypeptide: His-Tag, TEV cleavage site, three IgD hinges, GS linker, GDF15 (SEQ ID NO: 3)","Body Weight (Group, % of initial)","Day 0, 10 nmol/kg",100 % of initial
same,"Body Weight (Group, % of initial)","Day 1, 10 nmol/kg",98 % of initial
same,"Body Weight (Group, % of initial)","Day 2, 10 nmol/kg",97 % of initial
same,"Body Weight (Group, % of initial)","Day 3, 10 nmol/kg",96 % of initial
same,"Body Weight (Group, % of initial)","Day 4, 10 nmol/kg",95 % of initial
same,"Body Weight (Group, % of initial)","Day 5, 10 nmol/kg",94 % of initial
same,"Body Weight (Group, % of initial)","Day 6, 10 nmol/kg",95 % of initial
same,"Body Weight (Group, % of initial)","Day 7, 10 nmol/kg",95 % of initial
same,"Body Weight (Group, % of initial)","Day 8, 10 nmol/kg",95 % of initial
same,"Body Weight (Group, % of initial)","Day 9, 10 nmol/kg",96 % of initial
